Test results: publication PMC9635080, “Design, synthesis, in vitro, and in silico biological evaluations of coumarin-indole hybrids as new anti-α-glucosidase agents” (BMC Chemistry, 2022)

Assays:
yeast α-glucosidase [1] = molecular target: T1, yeast α-glucosidase (Saccharomyces cerevisiae, UniProt P53341); test: In vitro α-glucosidase inhibition assay; assay type: biochemical; settings: for inhibitory activity against α-glucosidase (in words): SAR discussion; for potency relative to acarbose: fold more potent than acarbose, from IC50 values
T1 construct: purchased Sigma-Aldrich
Experimental: Appropriate enzyme concentration was obtained in potassium phosphate buffer (pH 6.8, 50 mM), and coumarin-indole hybrids 4a–m were dissolved in DMSO (10% final concentration). […] The percentage of enzyme inhibition (% Inhibition) for each sample was calculated by using the following formula: %Inhibition=[(Abs control-Abs sample)/Abs control]×100
IC50 values were calculated from non-linear regression curve using by the Logit method.

yeast α-glucosidase [2] = molecular target: T1, yeast α-glucosidase; test: Kinetic study (Lineweaver–Burk plot) on α-glucosidase; assay type: biochemical
Experimental: To determine the mechanism of α-glucosidase inhibition of the newly synthesized compounds, the kinetic study was performed on compound 4d as representative compound. The relative velocity of the α-glucosidase was determined on four increasing concentrations of the p-nitrophenyl glucopyranoside as substrate. […] Then, the Lineweaver-Burke plot was depicted using the reciprocal of velocity and substrate concentration (Fig. 2a).
Fig. 2 Kinetic study of compound 4d into α-glucosidase. a The Lineweaver–Burk plot in the absence and presence of different concentrations of compound 4d; b The secondary plot between Km and various concentrations of compound 4d
Appropriate enzyme concentration was obtained in potassium phosphate buffer (pH 6.8, 50 mM), and coumarin-indole hybrids 4a–m were dissolved in DMSO (10% final concentration). The potassium phosphate buffer (135 µL), various concentrations of the target compounds 4a–m (20 µL), and prepared enzyme solution (20 µL) were added to the 96-well plate and the later mixture was incubated for 10 min at 37 °C. […] Finally, the change in absorbance of the final mixture was measured at 405 nm by using spectrophotometer (Gen5, Power wave xs2, BioTek, America). […] The percentage of enzyme inhibition (% Inhibition) for each sample was calculated by using the following formula: %Inhibition=[(Abs control-Abs sample)/Abs control]×100

T1 sequence (P53341 whole entry): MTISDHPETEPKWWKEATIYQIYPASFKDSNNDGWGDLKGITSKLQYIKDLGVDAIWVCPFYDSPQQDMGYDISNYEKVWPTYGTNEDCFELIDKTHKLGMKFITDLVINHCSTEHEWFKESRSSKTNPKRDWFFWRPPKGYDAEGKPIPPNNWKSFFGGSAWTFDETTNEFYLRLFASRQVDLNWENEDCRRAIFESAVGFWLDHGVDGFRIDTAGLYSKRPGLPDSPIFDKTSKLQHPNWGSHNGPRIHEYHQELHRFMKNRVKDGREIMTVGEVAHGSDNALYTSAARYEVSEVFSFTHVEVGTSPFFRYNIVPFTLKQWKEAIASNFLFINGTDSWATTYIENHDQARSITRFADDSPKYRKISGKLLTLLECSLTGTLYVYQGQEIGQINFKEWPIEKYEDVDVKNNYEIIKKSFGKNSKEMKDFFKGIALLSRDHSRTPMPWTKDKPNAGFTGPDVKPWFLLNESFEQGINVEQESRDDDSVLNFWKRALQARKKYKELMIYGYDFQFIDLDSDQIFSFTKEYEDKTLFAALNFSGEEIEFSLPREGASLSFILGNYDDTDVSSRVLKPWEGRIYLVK

SMILES | melting point | IC50 (yeast α-glucosidase [1]) | inhibitory activity against α-glucosidase (in words) (yeast α-glucosidase [1]) | potency relative to acarbose (yeast α-glucosidase [1]) | Ki (yeast α-glucosidase [2]) | type of inhibition (yeast α-glucosidase [2]; Lineweaver–Burk plot, inhibitor 0, 28, 58 and 116 µM)
O=c1oc2ccccc2c(O)c1C(c1ccc(O)cc1)c1c[nH]c2ccccc12 (stereo not drawn) [Compound 4f, 4-Hydroxy-3-((4-hydroxyphenyl)(1H-indol-3-yl)methyl)-2H-chromen-2-one] | 286 to 288 °C | > 750 µM | loss of effect |  |  | 
Cc1ccc(C(c2c(O)c3ccccc3oc2=O)c2c[nH]c3ccccc23)cc1 (stereo not drawn) [Compound 4b, 3-((1H-indol-3-yl)(p-tolyl)methyl)-4-hydroxy-2H-chromen-2-one] | 269 to 271 °C | 167.5 ± 0.8 µM |  |  |  | 
O=c1oc2ccccc2c(O)c1C(c1cccc(Oc2ccccc2)c1)c1c[nH]c2ccccc12 (stereo not drawn) [Compound 4d, 3-((1H-indol-3-yl)(3-phenoxyphenyl)methyl)-4-hydroxy-2H-chromen-2-one] | 183 to 185 °C | 116 ± 0.7 µM |  | around sixfold | 148 µM | competitive type of inhibition
O=c1oc2ccccc2c(O)c1C(c1ccccc1[N+](=O)[O-])c1c[nH]c2ccccc12 (stereo not drawn) [Compound 4l, 3-((1H-indol-3-yl)(2-nitrophenyl)methyl)-4-hydroxy-2H-chromen-2-one] | 240 to 242 °C | > 750 µM | completely abolished anti-α-glucosidase activity |  |  | 
O=c1oc2ccccc2c(O)c1C(c1cccc(Cl)c1)c1c[nH]c2ccccc12 (stereo not drawn) [Compound 4i, 3-((3-Chlorophenyl)(1H-indol-3-yl)methyl)-4-hydroxy-2H-chromen-2-one] | 205 to 207 °C | > 750 µM | loss of effect |  |  | 
O=c1oc2ccccc2c(O)c1C(c1cccc(Br)c1)c1c[nH]c2ccccc12 (stereo not drawn) [Compound 4k, 3-((3-Bromophenyl)(1H-indol-3-yl)methyl)-4-hydroxy-2H-chromen-2-one] | 212 to 214 °C | > 750 µM | did not show activity |  |  | 
O=c1oc2ccccc2c(O)c1C(c1ccccc1)c1c[nH]c2ccccc12 (stereo not drawn) [Compound 4a, 3-((1H-indol-3-yl)(phenyl)methyl)-4-hydroxy-2H-chromen-2-one] | 231 to 233 °C | 118 ± 3.1 µM |  | around sixfold |  | 
O=c1oc2ccccc2c(O)c1C(c1cccc([N+](=O)[O-])c1)c1c[nH]c2ccccc12 (stereo not drawn) [Compound 4m, 3-((1H-indol-3-yl)(3-nitrophenyl)methyl)-4-hydroxy-2H-chromen-2-one] | 198 to 200 °C | 180.5 ± 1.4 µM |  |  |  | 
COc1ccc(C(c2c(O)c3ccccc3oc2=O)c2c[nH]c3ccccc23)cc1 (stereo not drawn) [Compound 4c, 3-((1H-indol-3-yl)(4-methoxyphenyl)methyl)-4-hydroxy-2H-chromen-2-one] | 246 to 248 °C | 170 ± 2.1 µM |  |  |  | 
O=c1oc2ccccc2c(O)c1C(c1ccc(F)cc1)c1c[nH]c2ccccc12 (stereo not drawn) [Compound 4h, 3-((4-Fluorophenyl)(1H-indol-3-yl)methyl)-4-hydroxy-2H-chromen-2-one] | 243 to 245 °C | 474.9 ± 2.6 µM | dramatically decrease in inhibitory activity |  |  | 
O=c1oc2ccccc2c(O)c1C(c1cccc(O)c1)c1c[nH]c2ccccc12 (stereo not drawn) [Compound 4e, 4-Hydroxy-3-((3-hydroxyphenyl)(1H-indol-3-yl)methyl)-2H-chromen-2-one] | 200 to 202 °C | > 750 µM | loss of effect |  |  | 
O=c1oc2ccccc2c(O)c1C(c1cccc(F)c1)c1c[nH]c2ccccc12 (stereo not drawn) [Compound 4g, 3-((3-Fluorophenyl)(1H-indol-3-yl)methyl)-4-hydroxy-2H-chromen-2-one] | 222 to 224 °C | 174 ± 2.3 µM |  |  |  | 
O=c1oc2ccccc2c(O)c1C(c1ccc(Cl)cc1)c1c[nH]c2ccccc12 (stereo not drawn) [Compound 4j, 3-((4-Chlorophenyl)(1H-indol-3-yl)methyl)-4-hydroxy-2H-chromen-2-one] | 235 to 237 °C | 230 ± 2.3 µM |  |  |  | 
